One block for each molecule: values may come before it.
Assays:
[1] = system: 18GAAA-D1 (NAD+ riboswitch domain 1, WT) (RNA, riboswitch) GGCUUCAACAACCCCGUAGGUGGGGACGAAAGUCAGCGCACCUACUGGAGCC; assay: ITC; details: 50 mM NaCl, 10 mM MgCl2; for Kd: 50 mM HEPES pH 7.0, 25 °C (Figure S7 legend: 20 °C), apparent
[2] = system: 18GAAA-D1 A11U (RNA, riboswitch) GGCUUCAACAUCCCCGUAGGUGGGGACGAAAGUCAGCGCACCUACUGGAGCC; assay: ITC; details: 50 mM NaCl, 10 mM MgCl2; 50 mM HEPES pH 7.0, 25 °C (Figure S7 legend: 20 °C), apparent
[3] = system: 18GAAA-D1 C6U/G47A (RNA, riboswitch) GGCUUUAACAACCCCGUAGGUGGGGACGAAAGUCAGCGCACCUACUAGAGCC; assay: ITC; details: 50 mM NaCl, 10 mM MgCl2; 50 mM HEPES pH 7.0, 25 °C; 2 mM ligand stock titrated into 0.1 mM RNA
[4] = system: 18GAAA-D1 C6G/G47C (RNA, riboswitch) GGCUUGAACAACCCCGUAGGUGGGGACGAAAGUCAGCGCACCUACUCGAGCC; assay: ITC; details: 50 mM NaCl, 10 mM MgCl2; 50 mM HEPES pH 7.0, 25 °C; 2 mM ligand stock titrated into 0.1 mM RNA
[5] = system: 18GAAA-D1 G23A/C37U (RNA, riboswitch) GGCUUCAACAACCCCGUAGGUGAGGACGAAAGUCAGUGCACCUACUGGAGCC; assay: ITC; details: 50 mM NaCl, 10 mM MgCl2; 50 mM HEPES pH 7.0, 25 °C; 2 mM ligand stock titrated into 0.1 mM RNA
[6] = system: 18GAAA-D1 C13U/C14U/G36A/G38A (RNA, riboswitch) GGCUUCAACAACUUCGUAGGUGGGGACGAAAGUCAACACACCUACUGGAGCC; assay: ITC; details: 50 mM NaCl, 10 mM MgCl2; 50 mM HEPES pH 7.0, 25 °C; 2 mM ligand stock titrated into 0.1 mM RNA
[7] = system: 18GAAA-D1 C14G/G36C (RNA, riboswitch) GGCUUCAACAACCGCGUAGGUGGGGACGAAAGUCACCGCACCUACUGGAGCC; assay: ITC; details: 50 mM NaCl, 10 mM MgCl2; 50 mM HEPES pH 7.0, 25 °C; 2 mM ligand stock titrated into 0.1 mM RNA
[8] = system: 18GAAA-D1 C13G/G38C (RNA, riboswitch) GGCUUCAACAACGCCGUAGGUGGGGACGAAAGUCAGCCCACCUACUGGAGCC; assay: ITC; details: 50 mM NaCl, 10 mM MgCl2; 50 mM HEPES pH 7.0, 25 °C; 2 mM ligand stock titrated into 0.1 mM RNA
[9] = system: 18GAAA-D1 A8U (RNA, riboswitch) GGCUUCAUCAACCCCGUAGGUGGGGACGAAAGUCAGCGCACCUACUGGAGCC; assay: ITC; details: 50 mM NaCl, 10 mM MgCl2; 50 mM HEPES pH 7.0, 25 °C; 2 mM ligand stock titrated into 0.1 mM RNA
[10] = system: 18GAAA-D1 A8G (RNA, riboswitch) GGCUUCAGCAACCCCGUAGGUGGGGACGAAAGUCAGCGCACCUACUGGAGCC; assay: ITC; details: 50 mM NaCl, 10 mM MgCl2; 50 mM HEPES pH 7.0, 25 °C; 2 mM ligand stock titrated into 0.1 mM RNA
[11] = system: 18GAAA-D1 A10G (RNA, riboswitch) GGCUUCAACGACCCCGUAGGUGGGGACGAAAGUCAGCGCACCUACUGGAGCC; assay: ITC; details: 50 mM NaCl, 10 mM MgCl2; 50 mM HEPES pH 7.0, 25 °C; 2 mM ligand stock titrated into 0.1 mM RNA
[12] = system: 18GAAA-D1 A10C (RNA, riboswitch) GGCUUCAACCACCCCGUAGGUGGGGACGAAAGUCAGCGCACCUACUGGAGCC; assay: ITC; details: 50 mM NaCl, 10 mM MgCl2; 50 mM HEPES pH 7.0, 25 °C; 2 mM ligand stock titrated into 0.1 mM RNA
[13] = system: 18GAAA-D1 A35C (RNA, riboswitch) GGCUUCAACAACCCCGUAGGUGGGGACGAAAGUCCGCGCACCUACUGGAGCC; assay: ITC; details: 50 mM NaCl, 10 mM MgCl2; 50 mM HEPES pH 7.0, 25 °C; 2 mM ligand stock titrated into 0.1 mM RNA
[14] = system: 18GAAA-D1 G36C (RNA, riboswitch) GGCUUCAACAACCCCGUAGGUGGGGACGAAAGUCACCGCACCUACUGGAGCC; assay: ITC; details: 50 mM NaCl, 10 mM MgCl2; 50 mM HEPES pH 7.0, 25 °C; 2 mM ligand stock titrated into 0.1 mM RNA
[15] = system: 18GAAA-D1 G38C (RNA, riboswitch) GGCUUCAACAACCCCGUAGGUGGGGACGAAAGUCAGCCCACCUACUGGAGCC; assay: ITC; details: 50 mM NaCl, 10 mM MgCl2; 50 mM HEPES pH 7.0, 25 °C; 2 mM ligand stock titrated into 0.1 mM RNA
[16] = system: 18GAAA-D1 G36C/G38C (RNA, riboswitch) GGCUUCAACAACCCCGUAGGUGGGGACGAAAGUCACCCCACCUACUGGAGCC; assay: ITC; details: 50 mM NaCl, 10 mM MgCl2; 50 mM HEPES pH 7.0, 25 °C; 2 mM ligand stock titrated into 0.1 mM RNA
[17] = system: G36A/G38A/A11Ap domain 1 (RNA, riboswitch, 2-aminopurine at 11) GGCUUCAACAACCCCGUAGGUGGGGACGAAAGUCAACACACCUACUGGAGCC; assay: 2-aminopurine fluorescence
[18] = system: C13U/C14U/G36A/G38A domain 1, Ap variant (RNA, riboswitch, 2-aminopurine (position not given)) GGCUUCAACAACUUCGUAGGUGGGGACGAAAGUCAACACACCUACUGGAGCC; assay: 2-aminopurine fluorescence
[19] = system: 832GAAA-D2 (NAD+ riboswitch domain 2) (RNA, riboswitch) GGUUUCAACAUCCCCGUUCGGCGCUCGAAAGAGGUGGCCGGACUGAAGCC; assay: X-ray crystallography, 2.1 Å; details: Mg2+
[20] = system: 17delU1A-D1 (NAD+ riboswitch domain 1) (RNA, riboswitch) GGCGCAACAUCCCCGCCGGUUGGGCGCAUUGCACUCCGCGCAGUGAACCGGCUGCGCC; assay: X-ray crystallography, 2.80 Å; details: Mg2+; co-crystallised with U1A protein
[21] = system: A11Ap domain 1 (RNA, riboswitch, 2-aminopurine at 11) GGCUUCAACAACCCCGUAGGUGGGGACGAAAGUCAGCGCACCUACUGGAGCC; assay: 2-aminopurine fluorescence, real time; details: 100 mM KCl, 50 mM MgCl2; 50 mM KMOPS pH 7.5, 20 °C, 0.5 μM RNA, 0.3 mM ligand
[22] = system: A11Ap domain 1 (RNA, riboswitch, 2-aminopurine at 11) GGCUUCAACAACCCCGUAGGUGGGGACGAAAGUCAGCGCACCUACUGGAGCC; assay: 2-aminopurine fluorescence titration; details: 100 mM KCl, 50 mM MgCl2; 50 mM KMOPS pH 7.5, 20 °C, 0.5 μM RNA, apparent
[23] = system: U11Ap domain 2 (RNA, riboswitch, 2-aminopurine at 11) GGUUUCAACAUCCCCGUUCGGCGCUCGAAAGAGGUGGCCGGACUGAAGCC; assay: 2-aminopurine fluorescence titration; details: 100 mM KCl, 50 mM MgCl2; 50 mM KMOPS pH 7.5, 20 °C, 0.5 μM RNA, apparent

Kd [1]: 90.2 ± 8.6 µM
Compound: Nc1ncnc2c1ncn2[C@@H]1O[C@H](COP(=O)(O)OP(=O)(O)OP(=O)(O)O)[C@@H](O)[C@H]1O

Kd [1]: 95.3 ± 0.3 µM
binding [17]: yes
KD^ADP [22]: 94 ± 3 µM
KD^ADP [23]: 3400 ± 500 µM
Compound: Nc1ncnc2c1ncn2[C@@H]1O[C@H](COP(=O)(O)OP(=O)(O)O)[C@@H](O)[C@H]1O

More lines, now with the values behind:

Compound: NC(=O)c1ccc[n+]([C@@H]2O[C@H](COP(=O)(O)OP(=O)(O)OC[C@H]3O[C@@H](n4cnc5c(N)ncnc54)[C@H](O)[C@@H]3O)[C@@H](O)[C@H]2O)c1
Kd [1]: 127 ± 9.5 µM
Kd [2]: 111 ± 24.6 µM
binding [3]: no
binding [4]: no
binding [5]: no
binding [6]: no
binding [7]: no
binding [8]: no
binding [9]: no
binding [10]: no
binding [11]: no
binding [12]: no
binding [13]: no
binding [14]: no
binding [15]: no
binding [16]: no
binding [17]: yes
binding [18]: no
binding [19]: yes
binding [20]: yes
binding [21]: yes

Compound: NC(=O)c1ccc[n+]([C@@H]2O[C@H](COP(=O)([O-])O)[C@@H](O)[C@H]2O)c1
binding ([1]; 50 mM HEPES pH 7.0, 25 °C, 2 mM ligand stock titrated into 0.1 mM RNA): no

Compound: NC(=O)C1=CN([C@@H]2O[C@H](COP(=O)(O)OP(=O)(O)OC[C@H]3O[C@@H](n4cnc5c(N)ncnc54)[C@H](O)[C@@H]3O)[C@@H](O)[C@H]2O)C=CC1
Kd [1]: 305 ± 46.4 µM

Source: paper PMC7708056 (2020)
